The values that follow come from patent US20210214364A1, “sGC STIMULATORS” (Cyclerion Therapeutics, Inc., priority 2013, published 2021).

SMILES strings stand for the structures.

As usually defined, the EC50 is the concentration at which the effect is half-maximal.

The target of the assay is T1, soluble guanylate cyclase (sGC) endogenously expressed in HEK293 cells (Homo sapiens, UniProt Q02108+Q02153).
T1 construct: endogenously expressing soluble guanylate cyclase (sGC); endogenous in cells; host or cells: HEK293
T1 sequence (Q02153 1-619): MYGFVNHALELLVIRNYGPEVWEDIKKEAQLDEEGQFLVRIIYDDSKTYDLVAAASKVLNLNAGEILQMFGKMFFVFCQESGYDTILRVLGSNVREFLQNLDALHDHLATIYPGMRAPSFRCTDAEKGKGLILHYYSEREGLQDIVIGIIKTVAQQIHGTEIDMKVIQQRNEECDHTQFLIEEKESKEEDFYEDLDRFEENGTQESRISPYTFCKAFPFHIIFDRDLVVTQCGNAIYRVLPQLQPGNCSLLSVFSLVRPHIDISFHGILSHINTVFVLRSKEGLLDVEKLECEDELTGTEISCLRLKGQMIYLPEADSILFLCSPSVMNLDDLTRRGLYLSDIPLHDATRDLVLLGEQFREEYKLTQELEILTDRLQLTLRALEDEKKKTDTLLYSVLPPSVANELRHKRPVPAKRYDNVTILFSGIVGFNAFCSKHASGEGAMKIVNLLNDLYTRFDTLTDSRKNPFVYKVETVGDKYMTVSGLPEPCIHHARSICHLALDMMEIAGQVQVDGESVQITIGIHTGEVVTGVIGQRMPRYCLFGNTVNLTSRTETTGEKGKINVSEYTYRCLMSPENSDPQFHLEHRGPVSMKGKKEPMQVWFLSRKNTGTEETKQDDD
T1 sequence (Q02108 1-690): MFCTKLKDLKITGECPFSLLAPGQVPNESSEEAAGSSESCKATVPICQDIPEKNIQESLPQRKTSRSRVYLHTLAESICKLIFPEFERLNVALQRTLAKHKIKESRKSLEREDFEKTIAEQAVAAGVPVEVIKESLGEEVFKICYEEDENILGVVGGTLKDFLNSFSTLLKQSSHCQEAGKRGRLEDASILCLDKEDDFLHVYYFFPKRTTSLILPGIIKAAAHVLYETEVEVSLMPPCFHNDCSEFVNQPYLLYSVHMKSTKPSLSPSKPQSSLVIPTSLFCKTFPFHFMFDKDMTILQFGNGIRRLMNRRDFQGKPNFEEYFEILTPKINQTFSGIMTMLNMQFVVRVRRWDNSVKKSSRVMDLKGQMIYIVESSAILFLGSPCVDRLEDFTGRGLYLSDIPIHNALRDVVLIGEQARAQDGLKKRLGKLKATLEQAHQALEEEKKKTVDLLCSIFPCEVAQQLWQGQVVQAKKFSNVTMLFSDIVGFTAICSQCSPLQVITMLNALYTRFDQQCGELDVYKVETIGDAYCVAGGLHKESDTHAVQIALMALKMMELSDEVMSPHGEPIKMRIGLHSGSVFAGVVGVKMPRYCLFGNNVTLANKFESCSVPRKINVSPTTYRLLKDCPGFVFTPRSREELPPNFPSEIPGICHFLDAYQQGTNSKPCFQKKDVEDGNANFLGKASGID
Briefly: sGC-HEK-cGMP assay with LC/MS detection (whole cell). It is filed as cell-based. Conditions: 10 μM DETA-NONOate, 20 min, concentration eliciting 50% of high control response (30 μM Compound Y), read-out: sGC_HEK_LC MS EC50 Abs. The protocol:
Example 2: Biological Activity Measurement by the sGC-HEK-cGMP Assay, with LC/MS Detection
Human embryonic kidney cells (HEK293), endogenously expressing soluble guanylate cyclase (sGC), were used to evaluate the activity of test compounds. Compounds stimulating the sGC enzyme should cause an increase in the intracellular concentration of cGMP. HEK 293 cells were seeded in Dulbecco's Modification of Eagle's Medium supplemented with fetal bovine serum (10% final) and penicillin (100 U/mL)/streptomycin (100 μg/mL) in a 50 μL volume at a density of 1.5×10^4 cells/well in a poly-D-lysine coated 384 well flat bottom plate. Cells were incubated overnight at 37° C. in a humidified chamber with 5% CO2. Medium was aspirated and cells were washed with 1× Hank's Buffered Saline Salt Solution (50 μL). Cells were then incubated for 15 minutes at 37° C. with 50 μL of a 0.5 mM 3-isobutyl-1-methylxanthine (IBMX) solution. Test article and Diethylenetriamine NONOate (DETA-NONOate) solutions (x […] concentration for test article solution and 10 μM concentration for DETA-NONOate solution; wherein x is one of the following concentrations);
were then added to the assay mixture and the resulting mixture incubated at 37° C. for 20 minutes. After the 20 minute incubation, the assay mixture was aspirated and 10% acetic acid containing 150 ng/mL+3-cGMP (internal standard for LCMS) (50 μL) was added to the cells. The plate was incubated at 4° C. for 30 minutes in the acetic acid solution to stop the reaction and lyse the cells. The plates were then centrifuged at 1,000 g for 3 minutes at 4° C. and the supernatant transferred to a clean reaction plate for LCMS analysis.
cGMP concentrations were determined from each sample using the LCMS conditions below (Table 2) and calculated standard curve. The standard curve was prepared in 10% acetic acid with 150 ng/mL+3cGMP (isotopically labelled cGMP with a weight 3 units higher than wild type) with the following final concentrations of cGMP in ng/mL: 1, 5, 10, 50, 100, 250, 500, 1000, 2000.
Data were normalized to a high control using the following equation: 100*(Sample−Low Control)/(High Control−Low Control), where the low control is the average of 16 samples treated with 1% DMSO, and the high control is the average of 16 samples treated with 30 μM of Compound Y depicted below. Data were fit using a 4-parameter fit (log(agonist) vs. response variable slope) using GraphPad Prism Software v.5. n=2 for all compounds. The Absolute EC50 was interpolated from the curve fit and is defined as the concentration at which a given compound elicits 50% of the high control response. Compounds failing to elicit a minimum response of 50% are reported as >30 μM. For compounds run in duplicate or n higher than 2, the result herein given is the geometric mean of the several results obtained.

Take `COc1cc(-c2nc3c(c(=O)[nH]2)=C(C)C(=O)N=3)nn1Cc1ccccc1F` [Compound I-15]: the EC50 was at least 1000 nM.
As for `CC1(C(N)=O)C(=O)Nc2nc(-c3cc(OC(F)F)n(Cc4cccc(F)c4F)n3)nc(N)c21` (stereo not shown) [Compound I-53], the EC50 was in the range of 101 to 1000 nM.
The same measure for `COc1cc(-c2ncc(F)c(N3CCCCC3)n2)nn1Cc1ccccc1F` [Compound I-31]: at least 1000 nM; for `COc1c(C)c(-c2nc(N)c3c(n2)NC(=O)C3(C)C(N)=O)nn1Cc1ccccc1F` (stereo not shown) [Compound I-27]: at least 1000 nM; for `COc1cc(-c2ncc(F)c(NCC(N)=O)n2)nn1Cc1ccccc1F` [Compound I-11]: at least 1000 nM.
Regarding `CCOc1cc(-c2nc(N)c3c(n2)NC(=O)C3(C)C(N)=O)nn1Cc1ccccc1F` (stereo not shown) [Compound I-28], the concentration for a half-maximal effect (EC50) was at least 1000 nM.
The result for `COc1cc(-c2ncc(F)c(NCCS(N)(=O)=O)n2)nn1Cc1ccccc1F` [Compound I-69] reads at least 1000 nM; that for `COc1cc(-c2ncc(F)c(N3CCC(C(=O)O)(C(C)C)CC3)n2)nn1Cc1ccccc1F` [Compound I-67], 101 to 1000 nM.
The result for `COc1cc(-c2nnc3c(n2)NC(=O)C3(C)C)nn1Cc1ccccc1F` [Compound I-16] reads 101 to 1000 nM.
The same measure for `CCOC(=O)C1(C)C(=O)Nc2nc(-c3nc(OC)n(Cc4ccccc4F)n3)nc(N)c21` (stereo not shown) [Compound I-30]: at least 1000 nM; for `COc1cc(-c2ncc(F)c(NC[C@@H](C(=O)O)C(C)C)n2)nn1Cc1ccccc1F` [Compound I-60]: 101 to 1000 nM.
As for `COc1cc(-c2ncc(F)c(NCC(O)(C(N)=O)C(F)(F)F)n2)nn1Cc1ccccc1F` (stereo not shown) [Compound I-20], the EC50 is 101 to 1000 nM.
The result for `COc1cc(-c2ncc(F)c(N3CCNC(=O)C3)n2)nn1Cc1ccccc1F` [Compound I-62] reads at least 1000 nM; that for `CCOC(=O)C1(C)C(=O)Nc2nc(-c3cc(OC(F)F)n(Cc4cccc(F)c4F)n3)nc(N)c21` (stereo not shown) [Compound I-52], 101 to 1000 nM.
As for `C[C@H]1CCCN(c2nc(-c3cc(OC(F)F)n(Cc4ccccc4F)n3)ncc2F)[C@H]1C(=O)O` [Compound I-42], the EC50 fell in the range of 101 to 1000 nM.
For the molecule `COc1c(C#N)c(-c2nc(N)c3c(n2)NC(=O)C3(C)C(N)=O)nn1Cc1ccccc1F` (stereo not shown) [Compound I-25], the concentration for a half-maximal effect (EC50) lay in the range of 101 to 1000 nM.
On to `COc1cc(-c2nc(N)c3c(n2)NC(=O)C3(C)C(N)=O)nn1CCC(F)(F)F` (stereo not shown) [Compound I-7], for which the EC50 is at least 1000 nM.
The result for `CCOC(=O)C1(C)C(=O)Nc2nc(-c3cc(OC)n(Cc4ccccc4F)n3)[nH]c(=O)c21` (stereo not shown) [Compound I-35] reads 101 to 1000 nM; that for `COc1cc(-c2ncc(F)c(N3CCNCC3)n2)nn1Cc1ccccc1F` [Compound I-24], at least 1000 nM.
For `CCOC(=O)C1(C)C(=O)Nc2nc(-c3cc(OCC)n(Cc4ccccc4F)n3)nc(N)c21` (stereo not shown) [Compound I-46], the EC50 is 101 to 1000 nM.
For the molecule `COc1cc(-c2ncc(F)c(N3CCOCC3)n2)nn1Cc1ccccc1F` [Compound I-23], the 50% effective concentration (EC50) is at least 1000 nM.
The result for `COc1cc(-c2ncc(F)c(N(C)CC3(C(=O)O)CCCC3)n2)nn1Cc1ccccc1F` [Compound I-66] reads 101 to 1000 nM.
Turning to `CCOC(=O)C1(C)C(=O)Nc2nc(-c3cc(OC)n(CCC(F)(F)F)n3)nc(N)c21` (stereo not shown) [Compound I-14], the half-maximal effective concentration (EC50) is at least 1000 nM.
Take `COc1cc(-c2ncc(F)c(N3CCC(O)(CO)CC3)n2)nn1Cc1ccccc1F` [Compound I-61]: the EC50 is at least 1000 nM.
The same measure for `COc1cc(-c2ncc(F)c(N3CCCC3)n2)nn1Cc1ccccc1F` [Compound I-22]: at least 1000 nM.
On to `CC1(C(=O)NC2CC2)C(=O)Nc2nc(-c3cc(OC(F)F)n(CCC(F)(F)C(F)(F)F)n3)nc(N)c21` (stereo not shown) [Compound I-50], for which the 50% effective concentration (EC50) is at least 1000 nM.
The result for `COc1cc(-c2ncc(F)c(NCC(O)CO)n2)nn1Cc1ccccc1F` (stereo not shown) [Compound I-64] reads at least 1000 nM; that for `COc1cc(-c2ncc(F)c(NCCCCC(=O)O)n2)nn1Cc1ccccc1F` [Compound I-32], 101 to 1000 nM.
For the molecule `CC1(C(N)=O)C(=O)Nc2nc(-c3nn(Cc4ccccc4F)c(=O)[nH]3)nc(N)c21` (stereo not shown) [Compound I-10], the EC50 is at least 1000 nM.
On to `COc1nc(-c2nc(N)c3c(n2)NC(=O)C3(C)C(=O)NC2CC2)nn1Cc1ccccc1F` (stereo not shown) [Compound I-37], for which the EC50 was at least 1000 nM.
As for `COc1cc(-c2nc(N)c3c(n2)NC(=O)C3(C)C(N)=O)nn1Cc1ccccc1F` (stereo not shown) [Compound I-2], the EC50 was 101 to 1000 nM.
Take `O=c1[nH]c(-c2cc(OC(F)F)n(Cc3ccccc3F)n2)ncc1F` [Compound I-4]: the half-maximal effective concentration (EC50) is at least 1000 nM.
In the case of `CCOC(=O)C1(C)C(=O)Nc2nc(-c3nn(Cc4ccccc4F)c(=O)[nH]3)nc(N)c21` (stereo not shown) [Compound I-21], the EC50 was at least 1000 nM.
The same measure for `COc1cc(-c2ncc(F)c(NCC(=O)O)n2)nn1Cc1ccccc1F` [Compound I-9]: at least 1000 nM; for `Cn1c(-c2nc(N)c3c(n2)NC(=O)C3(C)C(N)=O)nn(Cc2ccccc2F)c1=O` (stereo not shown) [Compound I-18]: at least 1000 nM.
As to `CC1(C(N)=O)C(=O)Nc2nc(-c3cc(OC(F)F)n(Cc4ccccc4F)n3)nc(N)c21` (stereo not shown) [Compound I-71], the concentration giving a half-maximal response (EC50) was in the range of 101 to 1000 nM.
On to `CC1(C(N)=O)C(=O)Nc2nc(-c3cc(O)n(Cc4ccccc4F)n3)nc(N)c21` (stereo not shown) [Compound I-48], for which the EC50 was at least 1000 nM.
The result for `CCOC(=O)C1(C)C(=O)Nc2nc(-c3nn(Cc4ccccc4F)c(=O)n3C)nc(N)c21` (stereo not shown) [Compound I-29] reads at least 1000 nM.
The same measure for `CCOC(=O)C1(C)C(=O)Nc2nc(-c3cc(OC(F)F)n(CCC(F)(F)C(F)(F)F)n3)nc(N)c21` (stereo not shown) [Compound I-57]: at least 1000 nM; for `COc1cc(-c2ncc(F)c(NCc3cc(=O)[nH]o3)n2)nn1Cc1ccccc1F` [Compound I-19]: at least 1000 nM; for `COc1cc(-c2ncc(F)c(=O)[nH]2)nn1Cc1ccccc1F` [Compound I-5]: at least 1000 nM.
Turning to `CC1(C(N)=O)C(=O)Nc2nc(-c3cc(OC(F)F)n(CCC(F)(F)C(F)(F)F)n3)nc(N)c21` (stereo not shown) [Compound I-41], the EC50 was at least 1000 nM.
The result for `COc1cc(-c2ncc(NC(=O)OCc3ccccc3)c(=O)[nH]2)nn1Cc1ccccc1F` [Compound I-47] reads at least 1000 nM.
